In BigSolDB 2.1:

Oc1ccc(/C=C/c2cc(O)cc(O)c2)cc1
solubility (mole fraction)
Settings | in dichloromethane | in ethanol | in methanol | in n-butanol | in n-propanol
283.15 K | 1.23e-06 | 0.0212 | 0.0174 | 0.0103 | 0.0134
288.15 K | 1.57e-06 | 0.0224 | 0.0182 | 0.0112 | 0.0145
293.15 K | 2e-06 | 0.0236 | 0.019 | 0.0121 | 0.0156
298.15 K | 2.53e-06 | 0.0248 | 0.0198 | 0.013 | 0.0168
303.15 K | 3.13e-06 | 0.0261 | 0.0206 | 0.014 | 0.018
